Assay results: ChEMBL document CHEMBL5329155, “Synthesis and pharmacological evaluation of 1,3-diaryl substituted pyrazole based (thio)urea derivatives as potent antimicrobial agents against multi-drug resistant Staphylococcus aureus and Mycobacterium tuberculosis” (RSC Med Chem, 2023)
≈ marks a conversion by molar mass, not a printed value. Calls of active or inactive are those of the source. No cut-off for these calls is given here.

Experiments:
Staphylococcus aureus [1] = test: Antibacterial activity against methicillin-resistant Staphylococcus aureus assessed as reduction in bacterial growth; format: functional
[2] = system: Mycobacterium tuberculosis; test: Antimycobacterial activity against Mycobacterium tuberculosis H37Rv ATCC 27294 assessed as inhibition of bacterial growth incubated for 18 to 24 hrs by broth dilution method; format: functional
[3] = system: Mycobacterium tuberculosis; test: Antimycobacterial activity against ethambutol-resisitant Mycobacterium tuberculosis ATCC 35837 assessed as inhibition of bacterial growth incubated for 18 to 24 hrs by broth dilution method; format: functional; settings: time 18-24 hrs
[4] = Aqueous solubility of compound in phosphate buffer at pH 7.4 incubated for 16 hrs by HPLC analysis; format: physicochemical
[5] = system: Mycobacterium tuberculosis; test: Antimycobacterial activity against streptomycin-resisitant Mycobacterium tuberculosis ATCC 35820 assessed as inhibition of bacterial growth incubated for 18 to 24 hrs by broth dilution method; format: functional; settings: time 18-24 hrs
[6] = system: Mycobacterium tuberculosis; test: Antimycobacterial activity against isoniazid-resisitant Mycobacterium tuberculosis ATCC 35822 assessed as inhibition of bacterial growth incubated for 18 to 24 hrs by broth dilution method; format: functional; settings: time 18-24 hrs
[7] = Metabolic stability in human liver microsome assessed as intrinsic clearance at 1 uM preincubated for 5 mins followed by NADPH addition and measured after 60 mins by LC-MS/MS analysis; format: ADME; settings: liver microsomes, time 65 min, read-out: CLH
[8] = Cytotoxicity against African green monkey Vero cells assessed as reduction in cell viability incubated for 72 hrs by MTT assay; format: toxicity, cell-based; settings: chlorocebus sabaeus
[9] = Metabolic stability in human liver microsome assessed as half life at 1 uM preincubated for 5 mins followed by NADPH addition and measured after 60 mins by LC-MS/MS analysis; format: ADME; settings: liver microsomes, time 65 min
[10] = Selectivity index, ratio of CC50 for cytotoxicity against African green monkey Vero cells assessed as reduction in cell viability to MIC for antibacterial activity against Mycobacterium tuberculosis H37Rv ATCC 27294 assessed as inhibition of bacterial growth; format: toxicity, cell-based; settings: read-out: Selectivity Index
Staphylococcus aureus [11] = test: Antibacterial activity against Staphylococcus aureus ATCC 29213 assessed as inhibition of bacterial growth measured for 18 to 24 hrs by broth dilution method; format: functional; settings: time 18-24 hrs
[12] = system: Mycobacterium tuberculosis; test: Antimycobacterial activity against rifampicin-resisitant Mycobacterium tuberculosis ATCC 35838 assessed as inhibition of bacterial growth incubated for 18 to 24 hrs by broth dilution method; format: functional; settings: time 18-24 hrs
[13] = Metabolic stability in human liver microsome assessed as elimination rate constant at 1 uM preincubated for 5 mins followed by NADPH addition and measured after 60 mins by LC-MS/MS analysis; format: ADME; settings: liver microsomes, time 65 min
Staphylococcus aureus [14] = test: Antibacterial activity against Staphylococcus aureus assessed as reduction in bacterial growth; format: functional
DNA gyrase = DNA gyrase (Escherichia coli, UniProt P0AES4+P0AES6); test: Inhibition of Escherichia coli DNA gyrase; format: protein-complex assay
[15] = system: Mycobacterium tuberculosis; test: Antimycobacterial activity against Mycobacterium tuberculosis assessed as reduction in bacterial growth; format: functional
Mycobacteroides chelonae = test: Antibacterial activity against Mycobacteroides chelonae assessed as reduction in bacterial growth incubated for 18 to 24 hrs by broth dilution method; format: functional; settings: time 18-24 hrs
[16] = system: Mycolicibacterium fortuitum; test: Antimycobacterial activity against Mycobacterium fortuitum assessed as reduction in bacterial growth incubated for 18 to 24 hrs by broth dilution method; format: functional; settings: time 18-24 hrs
Staphylococcus aureus [17] = test: Antibacterial activity against methicillin/ceftriaxone/meropenem/gentamycin/vancomycin/teicoplanin resistant Staphylococcus aureus VRS 1 assessed as reduction in bacterial growth incubated for 18 to 24 hrs by broth dilution method; format: functional; settings: time 18-24 hrs
Staphylococcus aureus [18] = test: Antibacterial activity against methicillin/ceftriaxone/meropenem resistant Staphylococcus aureus NRS 186 assessed as reduction in bacterial growth incubated for 18 to 24 hrs by broth dilution method; format: functional; settings: time 18-24 hrs
Staphylococcus aureus [19] = test: Antibacterial activity against methicillin/ceftriaxone resistant Staphylococcus aureus NRS 194 assessed as reduction in bacterial growth incubated for 18 to 24 hrs by broth dilution method; format: functional; settings: time 18-24 hrs
Staphylococcus aureus [20] = test: Antibacterial activity against methicillin/ceftriaxone/meropenem/vancomycin/teicoplanin resistant Staphylococcus aureus VRS 4 assessed as reduction in bacterial growth incubated for 18 to 24 hrs by broth dilution method; format: functional; settings: time 18-24 hrs
Staphylococcus aureus [21] = test: Bacteriostatic activity against Staphylococcus aureus ATCC 29213 at 4 to 8 times MIC incubated for 2 to 24 hrs by time kill assay; format: functional, organism-based; settings: time 2-24 hrs
Staphylococcus aureus [22] = test: Antibacterial activity against methicillin-susceptible Staphylococcus aureus assessed as reduction in bacterial growth incubated for 18 to 24 hrs by broth dilution method; format: functional; settings: time 18-24 hrs
Staphylococcus aureus [23] = test: Antibacterial activity against methicillin/ceftriaxone/meropenem resistant Staphylococcus aureus NRS 191 assessed as reduction in bacterial growth incubated for 18 to 24 hrs by broth dilution method; format: functional; settings: time 18-24 hrs
Staphylococcus aureus [24] = test: Antibacterial activity against methicillin/ceftriaxone/meropenem resistant Staphylococcus aureus NRS 129 assessed as reduction in bacterial growth incubated for 18 to 24 hrs by broth dilution method; format: functional; settings: time 18-24 hrs
Staphylococcus aureus [25] = test: Antibacterial activity against methicillin/ceftriaxone/meropenem resistant Staphylococcus aureus NRS 192 assessed as reduction in bacterial growth incubated for 18 to 24 hrs by broth dilution method; format: functional; settings: time 18-24 hrs
Staphylococcus aureus [26] = test: Antibacterial activity against methicillin/ceftriaxone/meropenem resistant Staphylococcus aureus NRS 193 assessed as reduction in bacterial growth incubated for 18 to 24 hrs by broth dilution method; format: functional; settings: time 18-24 hrs
Staphylococcus aureus [27] = test: Antibacterial activity against methicillin/ceftriaxone/meropenem/gentamycin/linezolid resistant Staphylococcus aureus NRS 100 assessed as reduction in bacterial growth incubated for 18 to 24 hrs by broth dilution method; format: functional; settings: time 18-24 hrs
[28] = target: DNA gyrase (Escherichia coli) (UniProt P0AES6+P0AES4); test: Inhibition of Escherichia coli DNA gyrase supercoiling activity assessed as reduction in linear DNA formation at 8 times MIC incubated for 90 mins; format: protein-complex assay
Staphylococcus aureus [29] = test: Antibacterial activity against methicillin/ceftriaxone/meropenem/vancomycin/teicoplanin resistant Staphylococcus aureus VRS 12 assessed as reduction in bacterial growth incubated for 18 to 24 hrs by broth dilution method; format: functional; settings: time 18-24 hrs
[30] = Selectivity index, ratio of CC50 for cytotoxicity against African green monkey Vero cells assessed as reduction in cell viability to MIC for antibacterial activity against Staphylococcus aureus ATCC 29213 assessed as inhibition of bacterial growth; format: toxicity, cell-based; settings: read-out: Selectivity Index
Staphylococcus aureus [31] = test: Antibacterial activity against methicillin/ceftriaxone/meropenem/gentamycin/linezolid resistant Staphylococcus aureus NRS 119 assessed as reduction in bacterial growth incubated for 18 to 24 hrs by broth dilution method; format: functional; settings: time 18-24 hrs
Staphylococcus aureus [32] = test: Antibacterial activity against methicillin/ceftriaxone/meropenem resistant Staphylococcus aureus NRS 198 assessed as reduction in bacterial growth incubated for 18 to 24 hrs by broth dilution method; format: functional; settings: time 18-24 hrs

S=C(Nc1ccc(Cl)cc1)n1ccc(OCc2ccccc2)n1
MIC (Staphylococcus aureus [1]): 0.15 µM (≈ 0.0516 µg/mL)

COc1ccc(-c2ccn(-c3ccc(NC(=O)Nc4ccc(F)cc4F)cc3)n2)cc1OC
MIC [2]: 1 µg/mL (≈ 2.22 µM) | MIC [3]: 64 µg/mL (≈ 142 µM) | solubility at 16 h [4]: 6 µg/mL (≈ 13.3 µM) | MIC [5]: > 64 µg/mL | MIC [6]: > 64 µg/mL | microsomal CLint at 1 µM [7]: 10.4 µL/min/mg | CC50 at 72 h [8]: > 200 µg/mL | half-life at 1 µM [9]: 2.14 h | selectivity ratio [10]: > 200 | MIC (Staphylococcus aureus [11]): > 64 µg/mL | MIC [12]: 4 µg/mL (≈ 8.88 µM) | k el at 1 h, 1 µM [13]: 8.33e-05 s⁻¹

CCOC(=O)c1c(N)csc1-c1cn(-c2ccccc2)nc1-c1ccc(C)cc1
MIC (Staphylococcus aureus [14]): 0.22 µg/mL (≈ 0.545 µM) | IC50 (DNA gyrase): 12.3 µM

Cc1c(C(=O)NN2CCCCC2)nn(-c2ccc(Cl)cc2Cl)c1-c1ccc(Cl)cc1 [RIMONABANT]
MIC [15]: 25 µg/mL (≈ 53.9 µM)

COc1cc(-c2ccn(-c3ccc(NC(=O)NCc4ccccc4)cc3)n2)cc(OC)c1OC
MIC [2]: 0.5 µg/mL (≈ 1.09 µM) | MIC (Mycobacteroides chelonae): 1 µg/mL (≈ 2.18 µM) | CC50 at 72 h [8]: < 5 µg/mL | selectivity ratio [10]: < 10 | MIC [16]: 0.5 µg/mL (≈ 1.09 µM) | MIC (Staphylococcus aureus [11]): > 64 µg/mL

COc1ccc(-c2ccn(-c3ccc(NC(=O)Nc4ccc(Cl)c(Cl)c4)cc3)n2)cc1OC
MIC [2]: 32 µg/mL (≈ 66.2 µM) | MIC (Staphylococcus aureus [17]): 0.25 µg/mL (≈ 0.517 µM) | MIC (Staphylococcus aureus [18]): 0.25 µg/mL (≈ 0.517 µM) | solubility at 16 h [4]: 5 µg/mL (≈ 10.3 µM) | MIC (Staphylococcus aureus [19]): 0.25 µg/mL (≈ 0.517 µM) | MIC (Staphylococcus aureus [20]): 0.25 µg/mL (≈ 0.517 µM) | Activity (Staphylococcus aureus [21]): Active | microsomal CLint at 1 µM [7]: 12.4 µL/min/mg | MIC (Staphylococcus aureus [22]): 0.25 µg/mL (≈ 0.517 µM) | MIC (Staphylococcus aureus [23]): 0.25 µg/mL (≈ 0.517 µM) | CC50 at 72 h [8]: 10 µg/mL (≈ 20.7 µM) | MIC (Staphylococcus aureus [24]): 0.25 µg/mL (≈ 0.517 µM) | half-life at 1 µM [9]: 1.8 h | MIC (Staphylococcus aureus [25]): 0.25 µg/mL (≈ 0.517 µM) | MIC (Staphylococcus aureus [26]): 0.25 µg/mL (≈ 0.517 µM) | MIC (Staphylococcus aureus [11]): 0.25 µg/mL (≈ 0.517 µM) | MIC (Staphylococcus aureus [27]): 0.25 µg/mL (≈ 0.517 µM) | inhibition [28]: Active | MIC (Staphylococcus aureus [29]): 0.25 µg/mL (≈ 0.517 µM) | selectivity ratio [30]: 40 | k el at 1 h, 1 µM [13]: 0.0001 s⁻¹ | MIC (Staphylococcus aureus [31]): 0.25 µg/mL (≈ 0.517 µM) | MIC (Staphylococcus aureus [32]): 0.25 µg/mL (≈ 0.517 µM)
